Data as given in patent US20180105492A1, “COMPOUNDS DERIVED FROM 3-ALKYLAMINE-1H-INDOLYL ACRYLATE AND THEIR USE IN THE TREATMENT OF NEURODEGENERATIVE DISEASES” (FUNDACION PARA LA INVESTIGACION BIOMEDICA DEL HOSPITAL …, priority 2014, published 2018).

Experiments:
HepG2 cells = assay: Hepatotoxicity in HepG2 cell line, reduction of cell viability (MTT); assay type: cell-based
Protocol: (§1) In order to assess cellular viability, we measured the metabolic reduction of 3-(4,5-Dimethylthiazol-2-yl)-2,5 diphenyltetrazolium bromide (MTT). MTT is an indirect assay to measure cellular viability. It is a colorimetric method based on the reduction of 3-(4,5-Dimethylthiazol-2-yl)-2,5 diphenyltetrazolium. This process is performed by the mitochondrial enzyme succinate-dehydrogenase present in metabolic active cells. Thus, the water-soluble yellow MTT (tetrazolium salt) is transformed into a insoluble purple compound (formazan). Quantity of living cells is directly proportional to the quantity of formazan (Mosmann, 1983, J Immunol Methods, 65: 55-63). […] Therefore, with this assay we can measure cellular surviving and proliferation and also, we can determine the cytotoxicity of potential neuroprotective compounds. In order to assess cellular viability in SH-SY5Y cell line, we added 30 μl/well of MTT (5 mg/mL) and after 2 h, medium was carefully removed to avoid losing the formazan and was diluted in 300 μL of DMSO. Afterwards, samples were transferred to a 96 well-plate and the absorbance was measured at 570 nm using a absorbance/fluorescence reader FluoStar optima®. Every MTT assay was performed in triplicates. Absorbance values obtained with the toxic alone were subtracted to the absorbance values obtained in basal conditions (without treatment). That result was considered as the 100% of cell death and the values obtained with the compounds in the presence of the toxic stimulus were normalized as percentages of that value. For determining the surviving percentage, those percentages of cell death were subtracted to 100.
In general, compounds capable of inducing the transcription factor Nrf2 may have a hepatotoxic effect, due to the electrophilic character that generally characterizes them. The derivatives objects of this invention were designed to avoid this toxicity and to improve its safety profile. The liver plays an essential role in the metabolism of endogenous and exogenous compounds. Hepatocytes capture these compounds and after metabolizing them, they are eliminated by different mechanisms. Metabolized compounds usually have less pharmacological activity and less toxicity than the corresponding active principles. However, in certain cases, the active principles or their metabolites may be toxic to the hepatocytes. Hepatic toxicity is one of the leading causes of drug withdrawal from preclinical studies. […] In addition, these cells have been defined by the European Medicines Agency (EMA) as a model of hepatoxicity by measuring the induction of apoptosis and/or cell survival. Therefore, the safety profile of the compounds object of the present invention was evaluated in the HepG2 hepatic cancer cell line. HepG2 cells were cultured in T75 flask using EMEM as culture medium supplemented with non-essential amino acids, 10% fetal bovine serum, 50 units/mL penicillin and 50 μg/mL streptomycin (reagents from GIBCO, Madrid, Spain). Cultures were maintained in an incubator with an O2/CO2 gas mixture (95/5%) at 37° C. with a humid atmosphere and two passes per week were made when they reached 90% of confluence. All experiments were performed on cells that were between passages 5 and 15. For the experiments, the cells were plated in 96-well plates at a density of 4×10 ^4 cells/well in 200 μl of culture medium. After 24 h in culture, the medium was removed and replaced with 100 μL of the corresponding solution of the compounds of the invention in culture medium at the selected concentrations (1, 10, 30 and 100 μM). The compounds were studied in triplicate, including in each experiment 3 wells without treatment, which was considered as 100% of viability (baseline conditions). After 24 h of incubation with the treatments, cell viability was assessed by the MTT reduction method. […]

SH-SY5Y cells = assay: Neuroprotection against oxidative stress induced by menadione, pre- and co-incubation, MTT; assay type: cell-based; conditions: Homo sapiens, 24 h, compound 1 μM pre- and co-incubation, Menadione (8 mM); for viability at 1 µM: read-out: % Survival
Protocol: SH-SY5Y cells [ECACC 94030304], in 5 to 16 passage after defreezing were maintained in Eagle media modified by Dulbecco (DMEM) containing 15 non-essential amino acids and supplemented with 10% fetal bovine serum, 1 mM glutamine, 50 units/mL penicillin/streptomycin (obtained from GIBCO, Madrid, Spain). Cells were seeded in flasks containing supplemented media and were maintained in an incubator at 37° C. and 5% CO2. 1:4 passes were performed twice per week. For the experiments, cells were seeded in 24 well-plates at a density of 2×10^5 cells/well, or in 96 well-plates at a density of 8×10^4 cells/well. For cytotoxicity experiments, cells were treated with the compounds before confluence with DMEM media supplemented with fetal bovine serum 1%.
as §1
Neuroprotection elicited by the compounds of the invention 1-16: The activation of Nrf2-ARE pathway by different compounds exerts neuroprotective effects against toxic models based on oxidative stress via the expression of cytoprotective genes. […] We evaluated the neuroprotective potential of the compounds using the human neuroblastoma cell line using the following cytotoxicity models: 1) oxidative stress induced by rotenone+oligomycin, both blockers of the electron transport chain as previously described (Halliwell, 1992, J Neurochem, 59: 1609-23, Newhouse y col., 2004, Toxicol Sci, 79: 137-46), and 2) cytotoxicity induced by the electrophilic compound Menadione. This compound produces oxidative stress after being metabolized by microsomal enzymes in the cell which produces hydroxyl radical and oxygen reactive species. As a consequence, there is a depolarization of mitochondrial membrane generating a release of apoptotic factors such as cytochrome c, and activating the caspase cascade (Loor y col., 2010, Free Radic Biol Med, 49: 1925-36, Chuang y col., 2002, Cancer Res, 62: 6246-54). Caspase 3 activation can produce the lysis of proteins and induce DNA fragmentation, leading to cell death (Gerasimenko y col., 2002, J Cell Sci, 115: 485-97).
To further confirm the neuroprotective capacity in another model of oxidative stress, menadione was selected as toxic stimulus. […]

[1] = 24 h incubation, MTT, concentration reducing viability to 50% of basal

| SMILES | HepG2 LD50 (HepG2 cells; [1]) | % protection against menadione toxicity at 1 µM (SH-SY5Y cells) | viability at 1 µM (SH-SY5Y cells) | HepG2 LD50 (HepG2 cells; human, 24 h) |
| --- | --- | --- | --- | --- |
| CC(=O)NCCc1c[nH]c2ccc(OC(=O)/C=C/c3ccc(O)cc3)cc12 [Compound 7, 3-(2-acetamidoethyl)-1H-indol-5-yl (E)-3-(4-hydroxyphenyl)acrylate] | >100 µM | 61.8% | 86.8 ± 3.24% |  |
| CC(=O)NCCc1c[nH]c2ccc(OC(=O)/C=C/c3ccc(Br)cc3)cc12 [Compound 10, 3-(2-acetamidoethyl)-1H-indol-5-yl (E)-3-(4-bromophenyl)acrylate] | >100 µM | 27.6% | 72.4 ± 3.75% |  |
| CC(=O)NCCc1c[nH]c2ccc(OC(=O)/C=C/c3ccc(C(F)(F)F)cc3)cc12 [Compound 15, 3-(2-acetamidoethyl)-1H-indol-5-yl (E)-3-(4-(trifluoromethyl)phenyl)acrylate] | >100 µM | 31.6% | 73.2 ± 3.43% |  |
| COc1cccc(/C=C/C(=O)Oc2ccc3[nH]cc(CCNC(C)=O)c3c2)c1 [Compound 5, 3-(2-acetamidoethyl)-1H-indol-5-yl (E)-3-(3-methoxyphenyl)acrylate] | >100 µM | 38.1% | 76 ± 3.31% |  |
| CC(=O)NCCc1c[nH]c2ccc(OC(=O)/C=C/c3ccc(C)cc3)cc12 [Compound 3, 3-(2-acetamidoethyl)-1H-indol-5-yl (E)-3-(4-methylphenyl)acrylate] | >100 µM | 25% | 71.4 ± 2.43% |  |
| CC(=O)NCCc1c[nH]c2ccc(OC(=O)/C=C/c3cccc(C(F)(F)F)c3)cc12 [Compound 14, 3-(2-acetamidoethyl)-1H-indol-5-yl (E)-3-(3-(trifluoromethyl)phenyl)acrylate] | >100 µM | 44.8% | 78.5 ± 3.03% |  |
| CC(=O)NCCc1c[nH]c2ccc(OC(=O)/C=C/c3ccc([N+](=O)[O-])cc3)cc12 [Compound 16, 3-(2-acetamidoethyl)-1H-indol-5-yl (E)-3-(4-nitrophenyl)acrylate] | >100 µM | 53.6% | 84.3 ± 2.15% |  |
| CC(=O)NCCc1c[nH]c2ccc(OC(=O)/C=C/c3ccc(Cl)c(Cl)c3)cc12 [Compound 12, 3-(2-acetamidoethyl)-1H-indol-5-yl (E)-3-(3,4-dichlorophenyl)acrylate] | >100 µM | 59.3% | 86.5 ± 3.04% |  |
| COc1cc(/C=C/C(=O)Oc2ccc3[nH]cc(CCNC(C)=O)c3c2)ccc1O [Compound 8, 3-(2-acetamidoethyl)-1H-indol-5-yl (E)-3-(4-hydroxy-3-methoxyphenyl)acrylate] | >100 µM | 69.4% | 89.9 ± 1.86% |  |
| COc1ccc2[nH]cc(CCNC(C)=O)c2c1 [Melatonin, reference compound] |  | 37.4% | 72.9 ± 5.24% | >100 µM |
| CC(=O)NCCc1c[nH]c2ccc(OC(=O)/C=C/c3ccccc3C(F)(F)F)cc12 [Compound 13, 3-(2-acetamidoethyl)-1H-indol-5-yl (E)-3-(2-(trifluoromethyl)phenyl)acrylate] | >100 µM | 36.2% | 74.9 ± 2.19% |  |
| COc1ccccc1/C=C/C(=O)Oc1ccc2[nH]cc(CCNC(C)=O)c2c1 [Compound 4, 3-(2-acetamidoethyl)-1H-indol-5-yl (E)-3-(2-methoxyphenyl)acrylate] | >100 µM | 67.1% | 90.5 ± 1.97% |  |
| C/C=C/C(=O)Oc1ccc2[nH]cc(CCNC(C)=O)c2c1 [Compound 1, 3-(2-acetamidoethyl)-1H-indol-5-yl (E)-2-butenoate] | >100 µM | 63.3% | 87.7 ± 1.74% |  |
| CC(=O)NCCc1c[nH]c2ccc(OC(=O)/C=C/c3ccc(Cl)cc3)cc12 [Compound 11, 3-(2-acetamidoethyl)-1H-indol-5-yl (E)-3-(4-chlorophenyl)acrylate] | >100 µM | 57% | 85.7 ± 2.93% |  |
| CC(=O)NCCc1c[nH]c2ccc(OC(=O)/C=C/c3ccccc3)cc12 [Compound 2, 3-(2-acetamidoethyl)-1H-indol-5-yl cinnamate] | >100 µM | 32.5% | 74 ± 3.18% |  |
| COc1ccc(/C=C/C(=O)Oc2ccc3[nH]cc(CCNC(C)=O)c3c2)cc1 [Compound 6, 3-(2-acetamidoethyl)-1H-indol-5-yl (E)-3-(4-methoxyphenyl)acrylate] | >100 µM | 35.8% | 74.7 ± 2.91% |  |
| CC(=O)NCCc1c[nH]c2ccc(OC(=O)/C=C/c3ccc(F)cc3)cc12 [Compound 9, 3-(2-acetamidoethyl)-1H-indol-5-yl (E)-3-(4-fluorophenyl)acrylate] | >100 µM | 29.6% | 71.6 ± 3.74% |  |
